# Measured values: article PMC3326534 (Biochemistry, 2007)
# Read-outs that look alike come from different tables or passages of the source.
# What was measured:
# Assay type in all cases: binding
# PrnB [1] = molecular target: PrnB (Pseudomonas fluorescens, UniProt P95481, C21S/C60S/C175S); assay: crystal structure
# PrnB [2] = molecular target: T1, PrnB (Pseudomonas fluorescens, UniProt P95481, C175S/C21S/C60S); assay: spectrophotometric ligand titration
# PrnB [3] = molecular target: T1, PrnB; assay: spectrophotometric ligand titration; remark: listed apart in the source
# PrnB [4] = molecular target: T1, PrnB; assay: spectrophotometric ligand titration; remark: listed apart in the source
# T1 sequence (P95481 whole entry C175S/C21S/C60S): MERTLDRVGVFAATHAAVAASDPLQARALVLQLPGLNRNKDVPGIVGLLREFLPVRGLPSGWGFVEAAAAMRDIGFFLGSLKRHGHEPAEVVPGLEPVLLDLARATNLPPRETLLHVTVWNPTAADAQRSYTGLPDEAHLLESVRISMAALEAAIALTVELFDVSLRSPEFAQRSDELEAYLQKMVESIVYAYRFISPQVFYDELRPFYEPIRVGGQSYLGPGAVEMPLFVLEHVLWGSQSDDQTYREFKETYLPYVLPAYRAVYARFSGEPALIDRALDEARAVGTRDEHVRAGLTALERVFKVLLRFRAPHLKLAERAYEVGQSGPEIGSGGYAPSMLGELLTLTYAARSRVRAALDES
# Chain of PrnB (Pseudomonas fluorescens, UniProt P95481, C21S/C60S/C175S) (P95481 whole entry C21S/C60S/C175S): as the sequence (P95481 whole entry C175S/C21S/C60S) above
compound,measurement,setting,value
NC(Cc1c[nH]c2c(Cl)cccc12)C(=O)O (racemic) [7-Cl-D-tryptophan],crystal structure (2.0 Å),PrnB [1],"In the 7-Cl-D-tryptophan complex, one of the oxygen atoms of the carboxyl group is bound to the iron"
N[C@@H](Cc1c[nH]c2c(Cl)cccc12)C(=O)O [7-Cl-L-tryptophan],Kd,PrnB [2],4.9 µM
N[C@H](Cc1c[nH]c2ccccc12)C(=O)O [D-tryptophan],Kd,PrnB [3],39 µM
N[C@@H](Cc1c[nH]c2ccccc12)C(=O)O [L-tryptophan],Kd,PrnB [4],60 µM
